Residues, ends and D or L forms follow the SMILES beside them.
Key:
Sprague-Dawley rats = assay: Example 32: mitochondrial dysfunction in rats fed a high-fat diet; conditions: rat, in vivo
Method: Animals and reagents. Thirty male Sprague-Dawley rats will be obtained from Charles River Laboratory (Wilmington, MA) and housed in a temperature (22° C.) and light controlled room with free access to food and water. Twenty of the animals will be maintained on a high (60%) fat diet (Research Dyets, Bethlehem, PA). Skeletal muscle will be obtained from anesthetized animals (100 mg/kg i.p. ketamine-xylazine). After surgery, animals will be sacrificed by cervical dislocation while anesthetized. Amplex Red Ultra reagent will be obtained from Molecular Probes (Eugene, OR). Stigmatellin and horseradish peroxidase (HRP) will be obtained from Fluka Biochemika (Buchs, Switzerland). All other chemicals will be purchased from Sigma-Aldrich (St. Louis, MO). […]
Mitochondrial respiration and H2O2 production measurements. […] Mitochondrial H2O2 production will be measured at 30° C. during state 4 respiration in buffer Z (10 μg/mL oligomycin) by continuously monitoring oxidation of Amplex Red using a Spex Fluoromax 3 (Jobin Yvon, Ltd.) spectrofluorometer with temperature control and magnetic stirring at >1000 rpm. […] After baseline fluorescence (reactants only) is established, the reaction will be initiated by addition of a permeabilized fiber bundle to 300 μL of buffer Z containing 5 μM Amplex Red and 0.5 U/mL HRP, with succinate at […]. […]

SH-SY5Y cells = assay: Example 27: apoptosis caused by oxidative stress (Hoechst 33342); type: cell-based; conditions: 0.025 mM t-BHP, 24 hours
Method: SH-SY5Y cells will be grown in 96-well plates and treated with t-BHP (0.025 mM) alone or in the presence of peptide conjugates, aromatic-cationic peptides, or SPN10(s) with or without aromatic-cationic peptides at 37° C. for 24 hours. All treatments will be carried out in quadruplicate. Cells will then be stained with 2 mg/mL Hoechst 33342 for 20 minutes, fixed with 4% paraformaldehyde, and imaged using a Zeiss fluorescent microscope (Axiovert 200M) equipped with the Zeiss Acroplan 20× objective. Nuclear morphology will be evaluated using an excitation wavelength of […] and a longpass filter of 400 nm for emission. All images will be processed and analyzed using MetaMorph software (Universal Imaging Corp., West Chester, PA, U.S.A.). Uniformly stained nuclei will be scored as healthy, viable neurons. Cells with condensed or fragmented nuclei will be scored as apoptotic.

[1] = system: wild-type (WT) mice, middle cerebral artery occlusion; assay: Cerebral ischemia, no-reflow zone in the brain; type: in vivo, mouse; conditions: i.p. at 0, 6, 24 and 48 hours after ischemia
Method: Cerebral ischemia initiates a cascade of cellular and molecular events that lead to brain damage. One such event is an anatomic zone of no-reflow. Cerebral ischemia will be induced by occlusion of the right middle cerebral artery for 30 minutes. Wild-type (WT) mice will be given either saline vehicle (Veh), peptide conjugate, aromatic-cationic peptide, SPN10, SPN10 and aromatic-cationic peptide (2-5 mg/kg for the peptide conjugate and equivalent molar doses of aromatic-cationic peptide and/or SPN10 based on concentration of the aromatic-cationic peptide or SPN10 administered in the peptide conjugate group) i.p. at 0, 6, 24 and 48 hours after ischemia. Mice will be sacrificed 3 days after ischemia, and the brains sliced transversely into 6-8 sections. Sections will be photographed under ultraviolet light to identify the region of no-reflow. The areas of no-reflow in each slice will be digitized using Image J (supplier Rasband WS, Image J, National Institutes of Health, http://rsb.info.nih.gov/ij/). The areas in each slice will be multiplied by the weight of the slice and the results will be summed in order to obtain the mass of the no-reflow areas.

N=C(N)NCCC[C@H](NC(=O)[C@@H](N)Cc1c[nH]c2ccccc12)C(=O)N[C@@H](Cc1c[nH]c2ccccc12)C(=O)N[C@@H](CCCCN)C(N)=O [SPN10, H-L-Trp-L-Arg-L-Trp-L-Lys-NH2] (H-WRWK-NH2)
mitochondrial dysfunction under a high-fat diet (Sprague-Dawley rats): reduce mitochondrial dysfunction
apoptosis induced by t-BHP (SH-SY5Y cells): prevent SH-SY5Y cell apoptosis
anatomic zone of no-reflow in the brain [1]: prevent or reduce
infarct volume [1]: significant reduction
